The values that follow come from US11497752B2, “Compounds and uses thereof” (Foghorn Therapeutics Inc., priority 2018, dated 2022).

pIC50: −log10 of the molar value.

The target in one test is BRM (Homo sapiens, UniProt P51531). As to the kind of experiment: ATPase catalytic activity of BRM (ADP-Glo in vitro biochemical assay). The note with it: for BRM Max % Inhibition: Table 6. In general terms: ADP-Glo first removes unused ATP, then detects ADP through luciferase.
A further test has as its target BRG-1 (Homo sapiens, UniProt P51532). As to the kind of experiment: ATPase catalytic activity of BRG-1 (ADP-Glo in vitro biochemical assay). The note with it: for BRG1 Max % Inhibition: Table 6.

Chain of BRG-1 (P51532 whole entry): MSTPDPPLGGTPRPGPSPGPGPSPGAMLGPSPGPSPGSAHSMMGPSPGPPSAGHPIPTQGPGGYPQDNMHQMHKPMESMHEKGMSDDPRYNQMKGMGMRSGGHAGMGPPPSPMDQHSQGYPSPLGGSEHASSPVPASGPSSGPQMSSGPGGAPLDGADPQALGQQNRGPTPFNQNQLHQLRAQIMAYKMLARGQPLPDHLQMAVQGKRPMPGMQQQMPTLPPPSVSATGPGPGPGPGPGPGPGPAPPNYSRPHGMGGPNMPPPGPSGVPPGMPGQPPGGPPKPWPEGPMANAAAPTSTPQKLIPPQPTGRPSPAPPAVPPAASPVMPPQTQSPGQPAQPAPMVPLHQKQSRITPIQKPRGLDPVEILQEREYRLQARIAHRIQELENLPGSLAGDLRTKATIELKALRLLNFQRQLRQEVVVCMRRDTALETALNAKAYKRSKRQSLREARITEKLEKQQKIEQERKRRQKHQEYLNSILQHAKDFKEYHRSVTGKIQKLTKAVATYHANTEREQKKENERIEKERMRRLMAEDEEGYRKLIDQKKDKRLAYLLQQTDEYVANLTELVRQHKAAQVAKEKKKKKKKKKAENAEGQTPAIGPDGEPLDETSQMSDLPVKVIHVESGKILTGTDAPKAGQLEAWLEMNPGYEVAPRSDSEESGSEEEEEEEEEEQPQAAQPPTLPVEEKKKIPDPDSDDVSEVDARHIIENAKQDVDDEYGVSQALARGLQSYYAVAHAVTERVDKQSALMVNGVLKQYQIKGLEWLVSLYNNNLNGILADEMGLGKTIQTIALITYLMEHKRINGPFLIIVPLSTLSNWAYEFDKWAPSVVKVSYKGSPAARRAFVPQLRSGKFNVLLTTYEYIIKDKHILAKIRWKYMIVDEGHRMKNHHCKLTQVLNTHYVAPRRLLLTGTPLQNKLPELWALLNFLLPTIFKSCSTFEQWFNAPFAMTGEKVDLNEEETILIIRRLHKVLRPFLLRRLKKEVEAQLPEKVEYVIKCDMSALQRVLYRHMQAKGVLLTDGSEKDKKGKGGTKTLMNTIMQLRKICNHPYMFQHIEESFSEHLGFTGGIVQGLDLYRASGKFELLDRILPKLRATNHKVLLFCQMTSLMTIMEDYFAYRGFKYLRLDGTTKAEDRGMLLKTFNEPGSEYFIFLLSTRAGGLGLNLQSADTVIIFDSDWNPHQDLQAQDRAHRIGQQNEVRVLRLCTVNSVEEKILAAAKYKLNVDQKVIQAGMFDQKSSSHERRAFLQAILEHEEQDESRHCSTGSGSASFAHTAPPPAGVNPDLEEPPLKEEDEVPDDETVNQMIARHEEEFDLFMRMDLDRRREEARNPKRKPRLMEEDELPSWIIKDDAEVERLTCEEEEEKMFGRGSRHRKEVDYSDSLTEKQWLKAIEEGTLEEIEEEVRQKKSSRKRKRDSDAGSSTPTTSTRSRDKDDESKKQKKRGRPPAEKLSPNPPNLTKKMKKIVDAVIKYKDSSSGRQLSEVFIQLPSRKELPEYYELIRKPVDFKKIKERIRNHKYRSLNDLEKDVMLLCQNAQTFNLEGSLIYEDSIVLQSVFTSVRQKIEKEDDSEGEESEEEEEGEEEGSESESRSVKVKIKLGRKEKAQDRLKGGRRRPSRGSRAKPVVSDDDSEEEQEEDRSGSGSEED
Chain of BRM (P51531 whole entry): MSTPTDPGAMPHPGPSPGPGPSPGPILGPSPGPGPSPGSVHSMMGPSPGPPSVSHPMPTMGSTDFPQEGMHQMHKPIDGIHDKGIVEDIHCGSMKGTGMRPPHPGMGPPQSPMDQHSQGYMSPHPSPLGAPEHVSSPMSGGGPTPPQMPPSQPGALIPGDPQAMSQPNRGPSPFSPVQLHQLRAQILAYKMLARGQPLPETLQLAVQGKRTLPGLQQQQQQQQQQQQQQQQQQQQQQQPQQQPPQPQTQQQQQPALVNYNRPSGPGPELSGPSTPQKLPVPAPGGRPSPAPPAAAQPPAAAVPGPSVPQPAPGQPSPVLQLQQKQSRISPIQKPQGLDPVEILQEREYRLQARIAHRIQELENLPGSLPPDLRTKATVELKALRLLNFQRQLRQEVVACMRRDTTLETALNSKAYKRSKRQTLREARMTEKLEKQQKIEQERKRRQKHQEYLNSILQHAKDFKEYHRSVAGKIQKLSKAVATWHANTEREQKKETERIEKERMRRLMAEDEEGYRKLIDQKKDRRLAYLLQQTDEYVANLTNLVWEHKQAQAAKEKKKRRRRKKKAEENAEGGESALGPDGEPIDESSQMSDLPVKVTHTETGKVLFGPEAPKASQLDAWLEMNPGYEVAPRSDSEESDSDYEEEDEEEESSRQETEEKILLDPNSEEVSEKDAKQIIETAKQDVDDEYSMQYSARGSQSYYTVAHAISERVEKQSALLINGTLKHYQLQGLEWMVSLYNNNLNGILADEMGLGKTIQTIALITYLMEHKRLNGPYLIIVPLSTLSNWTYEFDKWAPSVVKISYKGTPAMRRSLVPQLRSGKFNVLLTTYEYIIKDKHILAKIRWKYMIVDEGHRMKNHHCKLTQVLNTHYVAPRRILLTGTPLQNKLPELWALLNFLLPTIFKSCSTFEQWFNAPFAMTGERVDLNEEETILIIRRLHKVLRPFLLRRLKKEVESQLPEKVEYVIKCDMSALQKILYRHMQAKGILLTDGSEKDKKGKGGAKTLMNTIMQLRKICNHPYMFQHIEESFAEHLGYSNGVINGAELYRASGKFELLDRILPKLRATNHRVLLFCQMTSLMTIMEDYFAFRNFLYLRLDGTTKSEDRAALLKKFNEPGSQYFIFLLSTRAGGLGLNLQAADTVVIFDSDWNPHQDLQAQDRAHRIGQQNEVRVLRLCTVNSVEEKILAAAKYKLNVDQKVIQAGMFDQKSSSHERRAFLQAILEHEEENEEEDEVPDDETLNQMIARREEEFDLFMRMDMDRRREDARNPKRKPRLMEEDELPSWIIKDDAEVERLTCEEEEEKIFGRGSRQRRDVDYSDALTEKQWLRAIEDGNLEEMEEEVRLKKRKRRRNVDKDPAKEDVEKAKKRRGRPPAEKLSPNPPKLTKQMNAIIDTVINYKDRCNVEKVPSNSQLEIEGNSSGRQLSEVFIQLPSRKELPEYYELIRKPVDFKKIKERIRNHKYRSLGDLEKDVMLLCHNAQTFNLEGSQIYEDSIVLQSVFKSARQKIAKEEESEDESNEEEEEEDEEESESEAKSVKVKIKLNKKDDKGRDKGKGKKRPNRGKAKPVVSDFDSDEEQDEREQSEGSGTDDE

The term pIC50 denotes the negative decadic logarithm of the IC50, by convention in mol/L. A higher pIC50 goes with a low IC50. In the case of `CN(C)C1CCCN(c2cc(-c3cccc(-c4csc(NC(=O)CNC(=O)c5ccc(N)cc5)n4)c3)ccn2)C1` (stereo not drawn) [Compound 225, 4-amino-N-[2-[[4-[3-[2-[3-(dimethylamino)-1-piperidyl]-4-pyridyl]phenyl]thiazol-2-yl]amino]-2-oxo-ethyl]benzamide], on BRM, the pIC50 was 6.00 to 7.00 and the “BRM Max % Inhibition” value is on record as more than 80%. Further, at BRG-1, the pIC50 was 6.00 to 7.00 and the “BRG1 Max % Inhibition” value is recorded as more than 90%.

In the case of `CNC(=O)C(C)(C)c1cc(-c2cccc(-c3csc(NC(=O)CNC(=O)c4ccc(N)cc4)n3)c2)ccn1` [Compound 226, 4-amino-N-[2-[[4-[3-[2-[1,1-dimethyl-2-(methylamino)-2-oxo-ethyl]-4-pyridyl]phenyl]thiazol-2-yl]amino]-2-oxo-ethyl]benzamide], at BRM, the pIC50 was more than 7.00 and the “BRM Max % Inhibition” value is listed as more than 95%. At BRG-1, the negative logarithm of the IC50 (pIC50) was more than 7.00 and the “BRG1 Max % Inhibition” value is more than 95%.

Take `Nc1ccc(C(=O)NCC(=O)Nc2nc(-c3cccc(-c4ccncn4)c3)cs2)cc1` [Compound 227, 4-amino-N-[2-oxo-2-[[4-(3-pyrimidin-4-ylphenyl)thiazol-2-yl]amino]ethyl]benzamide]: on BRM, the pIC50 was more than 7.00 and the “BRM Max % Inhibition” value was more than 95%. Besides, at BRG-1, the pIC50 is more than 7.00 and the “BRG1 Max % Inhibition” value is more than 95%.

`Cn1ncc2ccc(-c3csc(NC(=O)CNC(=O)c4ccc(N)cc4)n3)cc21` [Compound 228, 4-amino-N-[2-[[4-(1-methylindazol-6-yl)thiazol-2-yl]amino]-2-oxo-ethyl]benzamide]: at BRM, the pIC50 is 6.00 to 7.00 and the “BRM Max % Inhibition” value was more than 90%. At BRG-1, the pIC50 is 6.00 to 7.00 and the “BRG1 Max % Inhibition” value is listed as more than 90%.

As to `CC(C)(O)Cn1ccc(-c2cccc(-c3csc(NC(=O)CNC(=O)c4ccc(N)cc4)n3)c2)n1` [Compound 229, 4-amino-N-[2-[[4-[3-[1-(2-hydroxy-2-methyl-propyl)pyrazol-3-yl]phenyl]thiazol-2-yl]amino]-2-oxo-ethyl]benzamide], on BRM, the pIC50 is 6.00 to 7.00 and the “BRM Max % Inhibition” value was more than 95%. At BRG-1, the negative logarithm of the IC50 (pIC50) was 6.00 to 7.00 and the “BRG1 Max % Inhibition” value was more than 95%.

Turning to `Nc1ccc(C(=O)NCC(=O)Nc2nc(-c3cccc(COC4CCOCC4)c3)cs2)cc1` [Compound 230, 4-amino-N-[2-oxo-2-[[4-[3-(tetrahydropyran-4-yloxymethyl)phenyl]thiazol-2-yl]amino]ethyl]benzamide], on BRM, the negative-log IC50 (pIC50) is 6.00 to 7.00 and the “BRM Max % Inhibition” value is reported as more than 95%. Besides, at BRG-1, the pIC50 was 6.00 to 7.00 and the “BRG1 Max % Inhibition” value was more than 90%.

With `COC(C)(C)Cn1ccc(-c2cccc(-c3csc(NC(=O)CNC(=O)c4ccc(N)cc4)n3)c2)n1` [Compound 232, 4-amino-N-[2-[[4-[3-[1-(2-methoxy-2-methyl-propyl)pyrazol-3-yl]phenyl]thiazol-2-yl]amino]-2-oxo-ethyl]benzamide], at BRM, the pIC50 was 6.00 to 7.00 and the “BRM Max % Inhibition” value is reported as more than 80%. On BRG-1, the pIC50 is 6.00 to 7.00 and the “BRG1 Max % Inhibition” value is reported as more than 80%.

In the case of `CN(C)CC[C@H](NC(=O)c1ccc(N)cc1)C(=O)Nc1nc(-c2cccc(-c3ccncc3)c2)cs1` [Compound 233, (S)-4-amino-N-(4-(dimethylamino)-1-oxo-1-((4-(3-(pyridin-4-yl)phenyl)thiazol-2-yl)amino)butan-2-yl)benzamide], at BRM, the pIC50 was 6.00 to 7.00 and the “BRM Max % Inhibition” value is listed as more than 90%. Further, at BRG-1, the pIC50 is 6.00 to 7.00 and the “BRG1 Max % Inhibition” value is given as more than 80%.

Take `Nc1ccc(C(=O)NCC(=O)Nc2nc(-c3cccc(N4CCC[C@@H](O)C4)c3)cs2)cc1` [Compound 234, 4-amino-N-[2-[[4-[3-[(3R)-3-hydroxy-1-piperidyl]phenyl]thiazol-2-yl]amino]-2-oxo-ethyl]benzamide]: at BRM, the pIC50 is 6.00 to 7.00 and the “BRM Max % Inhibition” value was more than 90%. In addition, at BRG-1, the pIC50 is 6.00 to 7.00 and the “BRG1 Max % Inhibition” value is more than 90%.
